One test concerns HUVECs. Briefly: Motility assay with VEGF as chemoattractant. Type of test: cell-based. As to conditions: Homo sapiens, HUVEC; 24 hours pretreatment, average from two trials; read-out: IC50, cell motility. The procedure:
Different angiogenesis assays such as cord formation assay, motility assay and proliferation inhibition assay were performed at the developmental therapeutics program (DTP) branch of NCI (NCI/DTP) as described. HUVECs were used for all the assays. Taxol and TNP-470 were used as positive control for the assays.
For motility assay, HUVECs were pretreated for 24 hours with different concentrations ARC and used in the assay with vascular endothelial growth factor (VEGF) as a chemoattractant.

A further test concerns Akt. Kind of test: Akt Ser473 phosphorylation immunoblot in mAkt-overexpressing cells. Type of test: cell-based. As to conditions: Rat1a-mAkt and MCF7-mAkt cells, 24 hours. The method, then:
FIG. 9. ARC interferes with the Akt pathway by inhibiting phosphorylation of Akt. Rat1a and MCF-7 cells overexpressing myristoylated-Akt (mAkt) were treated with the indicated concentration of ARC for 24 hours, after which the cell lysates were used for immunoblotting with total and phospho-Ser473 specific Akt antibodies.
Another survival pathway that protects mitochondrial integrity is the Akt (AKT8 virus oncogene cellular homolog) pathway. In order to see if this pathway is affected, two different cell lines that overexpress myrisotylated-Akt (Rat1a-mAkt, and MCF7-mAkt) were used. Myristolated-Akt is a membrane-targeted Akt, a kinase involved in anti-apoptotic signaling.
Background: Immunoblotting shows a protein as a band on a membrane.

Turning to `NNc1c(C(N)=O)c2c(N)ncnc2n1[C@@H]1O[C@H](CO)[C@@H](O)[C@H]1O` [ARC, 4-amino-6-hydrazino-7-beta-D-ribofuranosyl-7H-pyrrolo[2,3-d]-pyrimidine-5-carboxamide], in the test with HUVECs, the IC50 is around 0.83 µM. The “Ser473 phosphorylation on Akt” value in the test with Akt is given as “decrease in Ser473 phosphorylation on Akt”.

As a reminder, the IC50 is the concentration at which inhibition is half-maximal.

(Values after patent publication US8207136B2, “Nucleoside compounds and methods of use thereof” (The Board of Trustees of the University of Illinois, priority 2005, dated 2012).)
